Reference: patent publication US20250057864A1, “COMPOSITION FOR IMPROVING EXERCISE PERFORMANCE COMPRISING GYPENOSIDE COMPOUND AS ACTIVE INGREDIENT” (BTC CORPORATION, priority 2022, published 2025)

Legend:
[1] = tested on: MHC1, MHC7, MHC2A, MHC2B, PGC-1α, PKB, FNDC5 in C2C12 cells; assay: mRNA expression of genes related with muscular strength type in C2C12 cells; assay type: cell-based, mice; conditions: C2C12, 0.36 μg/mL (Cr 5 μg/mL), control G1 = 1.00
Description: (§1) C2C12 cells were dispensed into a 6-well plate at 2×10^5 cells/well and stabilized for 24 hours. In order to investigate the effect of each test substance on muscle cell differentiation, each test substance was added to the myocyte differentiation medium. The cells were cultured for 4 days (mRNA analysis) or 7 days (protein analysis) after exchanging the cell culture medium with the myocyte differentiation medium treated with each test substance, as shown in Table 2.
(§2) C2C12 cells were dispensed into a 6-well plate at 2×10^5 cells/well and stabilized for 24 hours. The cells were cultured for 2 or 4 days after replacing the cell culture with a myocyte differentiation medium containing the test substance. After collecting the cells, total RNA was isolated using an RNeasy Plus Mini kit (QIAGEN), and quantified using a micro-volume spectrophotometer (BioSpec-nano, Shimadzu). RNAs with an OD260/280 value greater than 1.8 were used for experiment.
(§3) After obtaining cDNA from the total RNA (2 μg) using a HyperScript™ RT master mix kit (GeneAll Biotechnology), real-time PCR was performed using a Rotor-Gene 300 PCR kit (Corbett Research) and a Rotor-Gene™ SYBR Green kit (QIAGEN). Quantitative analysis of the gene expression was performed using the Rotor-Gene 6000 Series System Software program (Corbett Research).
The effect of the compositions according to Examples 1 to 4 on the mRNA expression of MHC1, MHC7, MHC2A and MHC2B, which are responsible for muscular strength type, was investigated.
The result of investigating the effect of the compositions according to Examples 1 to 4 on the mRNA expression of PGC-1α, PKB and FNDC5 on the muscular strength type is shown in Table 10.

[2] = tested on: GSY, SIRT1, PPARγ in C2C12 cells; assay: mRNA expression of genes related with energy in C2C12 cells; assay type: cell-based, mice; conditions: C2C12, 0.36 μg/mL (Cr 5 μg/mL), control G1 = 1.00
Description: as §1, §2, §3
The result of investigating the effect of the compositions according to Examples 1 to 4 on the mRNA expression of GSY, SIRT1 and PPARγ involved in the energy metabolism of muscle cells is shown in Table 11.

ICR mice = assay: Weight of liver and muscles; assay type: in vivo; conditions: 6 weeks
Description: (§4) After an acclimatization period of 1 week, healthy animals were selected and divided into 6 groups according to the randomized block design. The animals were divided into (G1) a non-exercise control group, (G2) a non-exercise+7 mg/kg body weight (BW) Example 1 group, (G3) a non-exercise+7 mg/kg BW Example 2 group, (G4) a non-exercise+7 mg/kg BW Example 3 group, (G5) a non-exercise+7 mg/kg BW Example 4 group, (G6) an exercise control group, (G7) an exercise+7 mg/kg BW Example 1 group, (G8) an exercise+7 mg/kg BW Example 2 group, (G9) an exercise+7 mg/kg BW Example 3 group, (G10) an exercise+7 mg/kg BW Example 4 group, and (G11) an exercise+75 mg/kg BW Cr dose group. Each test group consisted of 10 animals.
Before sacrificing, the experimental animal was anesthetized using an anesthetic prepared by dilution of tribromoethanol with tertiary amyl alcohol and blood was taken from the eye socket. The blood was placed in a serum-separating tube (Becton Dickinson) and left at room temperature for 30 minutes, centrifuged at 5,000 rpm for 10 minutes to separate the serum, and kept at −70° C. until analysis. After the blood sampling, the experimental animal was sacrificed and the liver and skeletal muscles [quadriceps femoris muscle (QF), gastrocnemius muscle (GA), soleus muscle (SOL), and extensor digitorum longus muscle (EDL)] were extracted. Their weight was measured after rinsing with cold physiological saline and removing excess water with filter paper. A portion of the soleus muscle (SOL) was fixed with 4% paraformaldehyde (PFA) and then embedded in paraffin for histoimmunological staining. Also, total RNA was isolated from a portion of the soleus muscle and subjected to real-time RT-PCR. Proteins were isolated from a portion of the gastrocnemius muscle (GA) and subjected to western blot. The remaining tissue was kept at −70° C. until analysis.
After the end of the test, the weight of the muscles and liver of the experimental animals was measured.
Since the body weight of the experimental animals was decreased due to exercise and the administration of the test substances, the relative weight of the muscles and liver per 100 g of body weight was calculated and shown in Table 23.

soleus muscle (SOL) = assay: mRNA expression in soleus muscle (SOL), real-time RT-PCR; assay type: in vivo, ICR mice
Description: as §4
Total RNA was isolated from the muscle tissue (SOL) collected at the end of the test using a TRizol reagent (Thermo Fisher Scientific), and quantified using a micro-volume spectrophotometer (BioSpec-nano, Shimadzu). RNAs with OD260/280 values above 1.8 were used for experiment. After obtaining cDNA from the total RNA (2 μg) using a HyperScript™ RT master mix kit (GeneAll Biotechnology), real-time PCR was performed using a Rotor-Gene 300 PCR kit (Corbett Research) and a Rotor-Gene™ SYBR Green kit (QIAGEN). Quantitative analysis of the gene expression was performed using the Rotor-Gene 6000 Series System Software program (Corbett Research).
Muscle can be classified into slow muscle and fast muscle depending on the physiological rate of contraction. […] Therefore, the effect of endurance exercise training and the administration of the test substances on the expression of antioxidant-related genes (SOD2, GPx1, UCP2, UCP3), LDH-related genes (ERRα, LDH B, MCT1), mitochondrial synthesis-related genes (Tfam, CPT-1β, mtDNA, NRF1) and energy metabolism-related genes (PGC-1α, GYS, PPARγ, PPARδ) in the soleus muscle, which is a slow muscle, was investigated.

[3] = treadmill exercise, 7 mg/kg BW (Cr 75 mg/kg BW)
[4] = SOL muscle, treadmill exercise, 7 mg/kg BW (Cr 75 mg/kg BW), G1 = 1.00
[5] = SOL muscle, non-exercise, 7 mg/kg BW, G1 = 1.00

CN(CC(=O)O)C(=N)N.O [Cr, Creatine monohydrate, reference compound]
mRNA expression FNDC5 [1]: 1.83 ± 0.47
mRNA expression MHC1 [1]: 4.50 ± 1.43
mRNA expression MHC2A [1]: 1.74 ± 0.22
mRNA expression MHC2B [1]: 1.10 ± 0.10
mRNA expression MHC7 [1]: 7.87 ± 2.66
mRNA expression PGC-1α [1]: 1.54 ± 1.10
mRNA expression PKB [1]: 2.18 ± 0.51
mRNA expression PPARγ [2]: 2.93 ± 1.32
mRNA expression Sirt1 [2]: 1.13 ± 0.18
Relative weight of extensor digitorum longus muscle (EDL) (ICR mice; [3]): 0.059 ± 0.004 g/100 g body weight
Relative weight of gastrocnemius muscle (GA) (ICR mice; [3]): 1.078 ± 0.028^ g/100 g body weight
Relative weight of quadriceps femoris muscle (QF) (ICR mice; [3]): 0.873 g/100 g body weight
Relative weight of soleus muscle (SOL) (ICR mice; [3]): 0.061 g/100 g body weight
Weight of extensor digitorum longus muscle (EDL) (ICR mice; [3]): 0.022 ± 0.001 g
Weight of gastrocnemius muscle (GA) (ICR mice; [3]): 0.409 ± 0.012 g
Weight of quadriceps femoris muscle (QF) (ICR mice; [3]): 0.330 g
Weight of soleus muscle (SOL) (ICR mice; [3]): 0.023 g
mRNA expression CPT-1β (soleus muscle (SOL); [4]): 0.95 ± 0.28^++
mRNA expression ERRα (soleus muscle (SOL); [4]): 0.58 ± 0.19^+
mRNA expression GPx1 (soleus muscle (SOL); [4]): 1.92 ± 0.29^+
mRNA expression GSY (soleus muscle (SOL); [4]): 0.92 ± 0.31
mRNA expression LDH B (soleus muscle (SOL); [4]): 0.35 ± 0.11^+
mRNA expression MCT1 (soleus muscle (SOL); [4]): 0.99 ± 0.31^++
mRNA expression NRF1 (soleus muscle (SOL); [4]): 9.17 ± 2.18
mRNA expression PGC1α (soleus muscle (SOL); [4]): 5.09 ± 1.22^+
mRNA expression PPARγ (soleus muscle (SOL); [4]): 0.29 ± 0.05
mRNA expression PPARδ (soleus muscle (SOL); [4]): 3.82 ± 0.90^++
mRNA expression SOD2 (soleus muscle (SOL); [4]): 1.52 ± 0.08^+
mRNA expression Tfam (soleus muscle (SOL); [4]): 1.34 ± 0.07^
mRNA expression UCP2 (soleus muscle (SOL); [4]): 14.96 ± 1.96^+++
mRNA expression UCP3 (soleus muscle (SOL); [4]): 0.87 ± 0.22
mRNA expression mtDNA (soleus muscle (SOL); [4]): 1.69 ± 0.20^

CC(C)=CCC[C@](C)(O)C1CC[C@]2(C)C1[C@H](O)CC1[C@@]3(C)C[C@@H](O)C(OC4OC(CO)C(O)C(O)C4OC4OC(CO)C(O)C(O)C4O)C(C)(C)C3CC[C@]12C (stereo partly shown) [Example 1, Gypenoside L]
mRNA expression FNDC5 [1]: 2.97 ± 0.39
mRNA expression MHC1 [1]: 10.30 ± 1.75
mRNA expression MHC2A [1]: 1.54 ± 0.32
mRNA expression MHC2B [1]: 1.20 ± 0.12
mRNA expression MHC7 [1]: 1.80 ± 0.41
mRNA expression PGC-1α [1]: 11.75 ± 3.82
mRNA expression PKB [1]: 3.04 ± 0.46
mRNA expression GSY [2]: 2.71 ± 0.32
mRNA expression PPARγ [2]: 1.16 ± 0.47
mRNA expression Sirt1 [2]: 1.40 ± 0.22
Relative weight of extensor digitorum longus muscle (EDL) (ICR mice; non-exercise, 7 mg/kg BW): 0.056 ± 0.002 g/100 g body weight
Relative weight of gastrocnemius muscle (GA) (ICR mice; non-exercise, 7 mg/kg BW): 1.040 ± 0.036^ g/100 g body weight
Relative weight of quadriceps femoris muscle (QF) (ICR mice; non-exercise, 7 mg/kg BW): 0.742 g/100 g body weight
Relative weight of soleus muscle (SOL) (ICR mice; non-exercise, 7 mg/kg BW): 0.056 g/100 g body weight
Weight of extensor digitorum longus muscle (EDL) (ICR mice; non-exercise, 7 mg/kg BW): 0.021 ± 0.001 g
Weight of gastrocnemius muscle (GA) (ICR mice; non-exercise, 7 mg/kg BW): 0.392 ± 0.010 g
Weight of quadriceps femoris muscle (QF) (ICR mice; non-exercise, 7 mg/kg BW): 0.282 g
Weight of soleus muscle (SOL) (ICR mice; non-exercise, 7 mg/kg BW): 0.021 g
Relative weight of extensor digitorum longus muscle (EDL) (ICR mice; [3]): 0.056 ± 0.003 g/100 g body weight
Relative weight of gastrocnemius muscle (GA) (ICR mice; [3]): 1.122 ± 0.032^+ g/100 g body weight
Relative weight of quadriceps femoris muscle (QF) (ICR mice; [3]): 0.827 g/100 g body weight
Relative weight of soleus muscle (SOL) (ICR mice; [3]): 0.064 g/100 g body weight
Weight of extensor digitorum longus muscle (EDL) (ICR mice; [3]): 0.020 ± 0.001 g
Weight of gastrocnemius muscle (GA) (ICR mice; [3]): 0.406 ± 0.012 g
Weight of quadriceps femoris muscle (QF) (ICR mice; [3]): 0.296 g
Weight of soleus muscle (SOL) (ICR mice; [3]): 0.023 g
mRNA expression CPT-1β (soleus muscle (SOL); 7 mg/kg): 0.86 ± 0.04^++
mRNA expression ERRα (soleus muscle (SOL); 7 mg/kg): 1.41 ± 0.22
mRNA expression GPx1 (soleus muscle (SOL); 7 mg/kg): 3.28 ± 0.36^++
mRNA expression GSY (soleus muscle (SOL); 7 mg/kg): 0.27 ± 0.06
mRNA expression LDH B (soleus muscle (SOL); 7 mg/kg): 1.26 ± 0.46
mRNA expression MCT1 (soleus muscle (SOL); 7 mg/kg): 0.56 ± 0.25^+
mRNA expression NRF1 (soleus muscle (SOL); 7 mg/kg): 29.20 ± 3.10^++
mRNA expression PGC1α (soleus muscle (SOL); 7 mg/kg): 2.73 ± 0.51
mRNA expression PPARγ (soleus muscle (SOL); 7 mg/kg): 5.82 ± 1.27^+
mRNA expression PPARδ (soleus muscle (SOL); 7 mg/kg): 2.42 ± 0.45^+
mRNA expression SOD2 (soleus muscle (SOL); 7 mg/kg): 1.47 ± 0.13^+
mRNA expression Tfam (soleus muscle (SOL); 7 mg/kg): 1.98 ± 0.42^+
mRNA expression UCP2 (soleus muscle (SOL); 7 mg/kg): 6.91 ± 1.47^++
mRNA expression UCP3 (soleus muscle (SOL); 7 mg/kg): 0.64 ± 0.10
mRNA expression CPT-1β (soleus muscle (SOL); [5]): 0.34 ± 0.02
mRNA expression ERRα (soleus muscle (SOL); [5]): 1.67 ± 0.22
mRNA expression GPx1 (soleus muscle (SOL); [5]): 0.89 ± 0.10
mRNA expression GSY (soleus muscle (SOL); [5]): 2.60 ± 0.51
mRNA expression LDH B (soleus muscle (SOL); [5]): 1.76 ± 0.49
mRNA expression MCT1 (soleus muscle (SOL); [5]): 0.41 ± 0.03
mRNA expression NRF1 (soleus muscle (SOL); [5]): 15.52 ± 2.59
mRNA expression PGC1α (soleus muscle (SOL); [5]): 0.88 ± 0.08
mRNA expression PPARγ (soleus muscle (SOL); [5]): 0.25 ± 0.00
mRNA expression PPARδ (soleus muscle (SOL); [5]): 2.87 ± 0.95
mRNA expression SOD2 (soleus muscle (SOL); [5]): 1.16 ± 0.03
mRNA expression Tfam (soleus muscle (SOL); [5]): 4.74 ± 0.32
mRNA expression UCP2 (soleus muscle (SOL); [5]): 1.23 ± 0.05
mRNA expression UCP3 (soleus muscle (SOL); [5]): 0.51 ± 0.09
mRNA expression mtDNA (soleus muscle (SOL); [5]): 1.29 ± 0.12
mRNA expression mtDNA (soleus muscle (SOL); [4]): 4.66 ± 0.64^++
